Results: PubChem BioAssay AID1919004 (Molecular Pharmacology Branch, DTP, NCI, 2023)
Several values for one entry are separate records, joined by “and”; a condition that tells them apart may be missing. Equal values may be shown once.

System: 883617-216-R-J1-PDC complex spheroids, growth, % test/control
Assay: Anticancer human tumor 883617-216-R-J1-PDC patient-derived bladder carcinoma cell line growth inhibition [AhR]
Details: for viability, T/C: stronger effect = lower value; active = viability on the fitted dose curve at most 10% of control; inactive = the rest
From the text: Multicellular complex tumor spheroid response to aryl hydrocarbon receptor antagonists in combination with a variety of drugs and investigational agents in selected tumor cell lines
The current study was undertaken to assess response to aryl hydrocarbon receptor antagonists in combination with standard-of-care drugs and investigational agents in solid tumor complex spheroid models. Complex spheroids include a stromal component modeled by human endothelial cells (HUVEC) and fibroblasts modeled by human mesenchymal stem cells (MSCs). The concentration ranges selected for each drug and investigational agent were based upon clinically achievable concentrations if the clinical Cmax of the agent was known.
Compounds. The drugs and investigational agents: BAY 2416964 (NSC825713), GNF351 (NSC835774), CH-223191 (NSC835775), CPI-455 (NSC825282), aza-TdCyd (NSC777586), decitabine (NSC127716), belinostat (NSC758774), entinostat (NSC756642), pevonedistat (NSC761192), tazemetostat (NSC777109), talazoparib (NSC765396), olaparib (NSC753686), selinexor (NSC780203), nedisertib (M3814, NSC802822), bortezomib (NSC756655), venetoclax (NSC766270), doxorubicin (NSC123127), elimusertib (BAY189344, NSC800525), ceralasertib (AZD6738, NSC777638), TAK-243 (NSC785004), alisertib (NSC759677), etoposide (NSC141540), topotecan (NSC609699), eribulin (NSC707389), gemcitabine (NSC613327), carboplatin (NSC241240), cisplatin (NSC119875), and SN-38 (NSC673596) were obtained from the National Cancer Institute (NCI) Developmental Therapeutics Program Chemical Repository (32). The FDA-approved anticancer drug set is available from the Developmental Therapeutics Program at https://dtp.cancer.gov/organization/dscb/obtaining/available plates.htm. […] The stock solutions were prepared in dimethyl sulfoxide (DMSO, Sigma-Aldrich, St. Louis, MO, cat. D2650), except for the platinum compounds which were prepared in saline (Quality Biological, Gaithersburg, MD, cat. 114-055-101), at 800-fold the tested concentration and stored at -70 degrees C prior to their use. All drugs and investigational agents were tested over a range starting from a high concentration at or near the clinical Cmax and decreasing in half-log increments. If the clinical Cmax for an agent had not been determined, the highest concentration tested was 10 microM (Table 1).
Cell Culture. All cells were maintained in an incubator at 37 degrees C and 5% CO2 with 95% humidity. The PDC lines were cultured according to standard operating procedures established by the NCI PDMR (https://pdmr.cancer.gov). Briefly, all PDCs were thawed and cultured in Matrigel-coated flasks prepared with a working solution of 1X Ham's F-12 nutrient mix, without supplementation (Invitrogen, Waltham, MA, cat. 11765054), 100 U/mL penicillin-streptomycin (Invitrogen, cat. 15140122), and 2.5% Matrigel (Corning Inc., Corning, NY, cat. 354248) for the first three passages. All PDCs were cultured in complete DMEM/F-12 media containing advanced DMEM/F-12 (Invitrogen, cat. 12634028), 4.9% defined fetal bovine serum, heat inactivated (HyClone Laboratories Inc., Logan, UT, cat. SH30070.03HI), 389 ng/mL hydrocortisone (Sigma-Aldrich, cat. H4001), 9.7 ng/mL human EGF recombinant protein (Invitrogen, cat. PHG0313), 23.4 microg/mL adenine (Sigma-Aldrich, cat. A2786), 97.3 U/mL penicillin-streptomycin (Invitrogen, cat. 15140122), 1.9 mM L-glutamine (Invitrogen, cat. 25030081), and 9.7 microM Y-27632 dihydrochloride (Tocris Bioscience, Bristol, United Kingdom, cat. 1254). The PDCs were cultured in complete DMEM/F12 media without 10 microM Y-27632 dihydrochloride for at least two passages prior to the screen. The established cell lines NCI-H1341 and […] were cultured in DMEM/F-12, HEPES (Invitrogen, cat. 11330032), 5% defined fetal bovine serum (HyClone Laboratories Inc., cat. SH30070.03), ITS premix universal culture supplement [insulin (5 microg/mL), transferrin (5 microg/mL), and selenious acid (5 ng/mL)] […]
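Also: exposure lasted 7 days after dosing on day 3 of spheroid growth.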

Cn1ncnc1C1c2n[nH]c(=O)c3cc(F)cc(c23)NC1c1ccc(F)cc1 (centres undefined)
inactive: viability, T/C (compound 0.000316 µM) 105% (2×) and 85.5% | viability, T/C (compound 0.001 µM) 111% and 107% and 106% | viability, T/C (compound 0.00316 µM) 103% and 101% and 76.3% | viability, T/C (compound 0.01 µM) 97.2% and 91.8% and 87.1% | viability, T/C (compound 0.0316 µM) 82.2% and 83.4% and 63.1% | viability, T/C (compound 0.1 µM) 75.4% and 77% and 89.1%
> 100 nM: IC50 (curve of compound)

O=C(C=Cc1cccc(S(=O)(=O)Nc2ccccc2)c1)NO
2130 nM and 2250 nM and 2170 nM: IC50 (curve of compound)
inactive: viability, T/C (compound 0.0316 µM) 107% and 95.8% and 72.5% | viability, T/C (compound 0.1 µM) 112% and 96.7% and 77.7% | viability, T/C (compound 0.316 µM) 92.8% and 76% and 74.6% | viability, T/C (compound 1 µM) 68.9% and 73.4% and 93.9% | viability, T/C (compound 3.16 µM) 40.8% (2×) and 35.7%
active: viability, T/C (compound 10 µM) 2.89% and 2.67% and 2.49%

CCc1c2c(nc3ccc(O)cc13)-c1cc3c(c(=O)n1C2)COC(=O)[C@]3(O)CC + Cc1ccccc1N=Nc1ccc(NC(=O)c2ccnn2C)c(C)c1
121 nM: IC50 (curve of first compound, second compound 1 µM)
inactive: viability, T/C (second compound 0.1 µM, first compound 0.000949 µM) 92% | viability, T/C (second compound 0.1 µM, first compound 0.003 µM) 84% | viability, T/C (second compound 0.1 µM, first compound 0.00949 µM) 72.7% | viability, T/C (second compound 0.1 µM, first compound 0.03 µM) 70.2% | viability, T/C (second compound 0.1 µM, first compound 0.0949 µM) 60.3% | viability, T/C (second compound 0.1 µM, first compound 0.3 µM) 42.1% | viability, T/C (second compound 0.316 µM, first compound 0.000949 µM) 80.8% | viability, T/C (second compound 0.316 µM, first compound 0.003 µM) 82.2% | viability, T/C (second compound 0.316 µM, first compound 0.00949 µM) 77.6% | viability, T/C (second compound 0.316 µM, first compound 0.03 µM) 66.8% | viability, T/C (second compound 0.316 µM, first compound 0.0949 µM) 56.5% | viability, T/C (second compound 0.316 µM, first compound 0.3 µM) 43.6% | viability, T/C (second compound 1 µM, first compound 0.000949 µM) 80.9% | viability, T/C (second compound 1 µM, first compound 0.003 µM) 83.8% | viability, T/C (second compound 1 µM, first compound 0.00949 µM) 79.1% | viability, T/C (second compound 1 µM, first compound 0.03 µM) 61.6% | viability, T/C (second compound 1 µM, first compound 0.0949 µM) 54.4% | viability, T/C (second compound 1 µM, first compound 0.3 µM) 44% | viability, T/C (second compound 3.16 µM, first compound 0.000949 µM) 81.7% | viability, T/C (second compound 3.16 µM, first compound 0.003 µM) 84% | viability, T/C (second compound 3.16 µM, first compound 0.00949 µM) 70.7% | viability, T/C (second compound 3.16 µM, first compound 0.03 µM) 64.7% | viability, T/C (second compound 3.16 µM, first compound 0.0949 µM) 51.5% | viability, T/C (second compound 3.16 µM, first compound 0.3 µM) 39.4% | viability, T/C (second compound 10 µM, first compound 0.000949 µM) 78.8% | viability, T/C (second compound 10 µM, first compound 0.003 µM) 77.2% | viability, T/C (second compound 10 µM, first compound 0.00949 µM) 72.6% | viability, T/C (second compound 10 µM, first compound 0.03 µM) 74.8% | viability, T/C (second compound 10 µM, first compound 0.0949 µM) 56.8% | viability, T/C (second compound 10 µM, first compound 0.3 µM) 44.9%
163 nM: IC50 (curve of first compound, second compound 0.316 µM)
109 nM: IC50 (curve of first compound, second compound 3.16 µM)
199 nM: IC50 (curve of first compound, second compound 10 µM)
185 nM: IC50 (curve of first compound, second compound 0.1 µM)
